Tests used:
HCT-15 [1] = assay: Cytotoxicity against human HCT15 cells assessed as cell growth at 100 uM after 48 hrs by sulforhodamine B assay relative to control; type: functional; conditions: HCT-15, 48 h, read-out: Activity
NCI-H226 = assay: Cytotoxicity against human NCI-H226 cells assessed as cell growth at 10 uM after 48 hrs by sulforhodamine B assay relative to control; type: functional; conditions: NCI-H226, 48 h, read-out: Activity
NCI-H23 = assay: Cytotoxicity against human NCI-H23 cells assessed as growth inhibition after 48 hrs by sulforhodamine B assay; type: functional; conditions: NCI-H23, 48 h
BT-549 [2] = assay: Cytotoxicity against human BT549 cells assessed as cell growth at 1 uM after 48 hrs by sulforhodamine B assay relative to control; type: functional; conditions: BT-549, 48 h, read-out: Activity
PC-3 [3] = assay: Cytotoxicity against human PC3 cells assessed as cell growth at 100 uM after 48 hrs by sulforhodamine B assay relative to control; type: functional; conditions: PC-3, 48 h, read-out: Activity
MCF7 = assay: Cytotoxicity against human MCF7 cells assessed as growth inhibition after 48 hrs by MTT assay; type: functional, cell-based; conditions: MCF7, 48 h
NCI-H460 = assay: Cytotoxicity against human NCI-H460 cells assessed as cell growth at 0.1 uM after 48 hrs by sulforhodamine B assay relative to control; type: functional; conditions: NCI-H460, 48 h, read-out: Activity
T47D [4] = assay: Cytotoxicity against human T47D cells assessed as cell growth at 100 uM after 48 hrs by sulforhodamine B assay relative to control; type: functional; conditions: read-out: Activity
SF-539 = assay: Cytotoxicity against human SF539 cells assessed as cell growth at 10 uM after 48 hrs by sulforhodamine B assay relative to control; type: functional; conditions: SF-539, 48 h, read-out: Activity
MOLT-4 [5] = assay: Cytotoxicity against human MOLT4 cells assessed as cell growth at 100 uM after 48 hrs by sulforhodamine B assay relative to control; type: functional; conditions: MOLT-4, 48 h, read-out: Activity
OVCAR-4 [6] = assay: Cytotoxicity against human OVCAR4 cells assessed as cell growth at 100 uM after 48 hrs by sulforhodamine B assay relative to control; type: functional; conditions: OVCAR-4, 48 h, read-out: Activity
T47D [7] = assay: Cytotoxicity against human T47D cells assessed as cell growth at 0.1 uM after 48 hrs by sulforhodamine B assay relative to control; type: functional; conditions: read-out: Activity
NCI-H522 = assay: Cytotoxicity against human NCI-H522 cells assessed as cell growth at 10 uM after 48 hrs by sulforhodamine B assay relative to control; type: functional; conditions: NCI-H522, 48 h, read-out: Activity
786-0 = assay: Cytotoxicity against human 786-0 cells assessed as cell growth at 100 uM after 48 hrs by sulforhodamine B assay relative to control; type: functional; conditions: 786-0, 48 h, read-out: Activity
HCC 2998 = assay: Cytotoxicity against human HCC2998 cells assessed as cell growth at 0.01 uM after 48 hrs by sulforhodamine B assay relative to control; type: functional; conditions: HCC 2998, 48 h, read-out: Activity
OVCAR-5 = assay: Cytotoxicity against human OVCAR5 cells assessed as cell growth at 0.01 uM after 48 hrs by sulforhodamine B assay relative to control; type: functional; conditions: OVCAR-5, 48 h, read-out: Activity
IGROV-1 = assay: Cytotoxicity against human IGROV1 cells assessed as cell growth at 1 uM after 48 hrs by sulforhodamine B assay relative to control; type: functional; conditions: IGROV-1, 48 h, read-out: Activity
OVCAR-8 = assay: Cytotoxicity against human OVCAR8 cells assessed as cell growth at 100 uM after 48 hrs by sulforhodamine B assay relative to control; type: functional; conditions: OVCAR-8, 48 h, read-out: Activity
HOP-62 [8] = assay: Cytotoxicity against human HOP62 cells assessed as cell growth at 100 uM after 48 hrs by sulforhodamine B assay relative to control; type: functional; conditions: HOP-62, 48 h, read-out: Activity
SK-OV-3 = assay: Cytotoxicity against human SKOV3 cells assessed as cell growth at 100 uM after 48 hrs by sulforhodamine B assay relative to control; type: functional; conditions: SK-OV-3, 48 h, read-out: Activity
DU-145 = assay: Cytotoxicity against human DU145 cells assessed as cell growth at 100 uM after 48 hrs by sulforhodamine B assay relative to control; type: functional; conditions: DU-145, 48 h, read-out: Activity
SF-268 = assay: Cytotoxicity against human SF268 cells assessed as cell growth at 0.1 uM after 48 hrs by sulforhodamine B assay relative to control; type: functional; conditions: SF-268, 48 h, read-out: Activity
HOP-62 [9] = assay: Cytotoxicity against human HOP62 cells assessed as growth inhibition after 48 hrs by sulforhodamine B assay; type: functional; conditions: HOP-62, 48 h
Hs-578T = assay: Cytotoxicity against human Hs 578T cells assessed as cell growth at 10 uM after 48 hrs by sulforhodamine B assay relative to control; type: functional; conditions: read-out: Activity
OVCAR-4 [10] = assay: Cytotoxicity against human OVCAR4 cells assessed as cell growth at 0.01 uM after 48 hrs by sulforhodamine B assay relative to control; type: functional; conditions: OVCAR-4, 48 h, read-out: Activity
BT-549 [11] = assay: Cytotoxicity against human BT549 cells assessed as growth inhibition after 48 hrs by sulforhodamine B assay; type: functional; conditions: BT-549, 48 h
MDA-MB-468 = assay: Cytotoxicity against human MDA-MB-468 cells assessed as growth inhibition after 48 hrs by sulforhodamine B assay; type: functional; conditions: MDA-MB-468, 48 h
MOLT-4 [12] = assay: Cytotoxicity against human MOLT4 cells assessed as cell growth at 0.01 uM after 48 hrs by sulforhodamine B assay relative to control; type: functional; conditions: MOLT-4, 48 h, read-out: Activity
HL-60(TB) = assay: Cytotoxicity against human HL-60(TB) cells assessed as growth inhibition after 48 hrs by sulforhodamine B assay; type: functional; conditions: HL-60, 48 h
SK-MEL-5 = assay: Cytotoxicity against human SK-MEL-5 cells assessed as cell growth at 10 uM after 48 hrs by sulforhodamine B assay relative to control; type: functional; conditions: SK-MEL-5, 48 h, read-out: Activity
PC-3 [13] = assay: Cytotoxicity against human PC3 cells assessed as cell growth at 0.01 uM after 48 hrs by sulforhodamine B assay relative to control; type: functional; conditions: PC-3, 48 h, read-out: Activity
HCT-15 [14] = assay: Cytotoxicity against human HCT15 cells assessed as cell growth at 1 uM after 48 hrs by sulforhodamine B assay relative to control; type: functional; conditions: HCT-15, 48 h, read-out: Activity
T47D [15] = assay: Cytotoxicity against human T47D cells assessed as growth inhibition after 48 hrs by sulforhodamine B assay; type: functional
HCT-116 = assay: Cytotoxicity against human HCT116 cells assessed as cell growth at 100 uM after 48 hrs by sulforhodamine B assay relative to control; type: functional; conditions: HCT-116, 48 h, read-out: Activity
U-251 = assay: Cytotoxicity against human U251 cells assessed as growth inhibition after 48 hrs by sulforhodamine B assay; type: functional; conditions: U-251, 48 h

`COc1ccc(-c2cc(/C=C/C(=O)c3ccc(OC)c(OC)c3)[nH]n2)cc1` showed a growth at 100 µM (HCT-15 [1]) of -92%, a growth at 10 µM (NCI-H226) of -64% and a GI50 (NCI-H23) of 2.47 µM. For the same compound, the TGI (NCI-H23) was 6.33 µM, the CC50 (NCI-H23; read-out: LC50 (the source's name)) was 34.1 µM and the growth at 1 µM (BT-549 [2]) was 85%. For the same compound, the growth at 100 µM (PC-3 [3]) was -90%, the IC50 (MCF7) was 0.5 µM and the growth at 0.1 µM (NCI-H460) was 101%. For the same compound, the growth at 100 µM (T47D [4]) was -83%, the growth at 10 µM (SF-539) was -93% and the growth at 100 µM (MOLT-4 [5]) was -33%. It also gave a growth at 100 µM (OVCAR-4 [6]) of -77%, a growth at 0.1 µM (T47D [7]) of 92% and a growth at 10 µM (NCI-H522) of -68%. For the same compound, the growth at 100 µM (786-0) was -96%, the growth at 0.01 µM (HCC 2998) was 100% and the growth at 0.01 µM (OVCAR-5) was 93%. The growth at 1 µM (IGROV-1) was 77%, the growth at 100 µM (OVCAR-8) was -66% and the growth at 100 µM (HOP-62 [8]) was -71%. It also gave a growth at 100 µM (SK-OV-3) of -95%, a growth at 100 µM (DU-145) of -80% and a growth at 0.1 µM (SF-268) of 99%. For the same compound, the GI50 (HOP-62 [9]) was 2.35 µM, the LC50 (HOP-62 [9]) was 35.3 µM and the TGI (HOP-62 [9]) was 6.17 µM. For the same compound, the growth at 10 µM (Hs-578T) was 23%, the growth at 0.01 µM (OVCAR-4 [10]) was 88% and the GI50 (BT-549 [11]) was 1.68 µM. It also gave an LC50 (concentration killing 50% of cells) (BT-549 [11]) of 7.4 µM, a TGI (BT-549 [11]) of 3.53 µM and a GI50 (MDA-MB-468) of 1.22 µM. For the same compound, the LC50 (MDA-MB-468) was 7.12 µM, the TGI (MDA-MB-468) was 2.94 µM and the growth at 0.01 µM (MOLT-4 [12]) was 105%. The GI50 (HL-60(TB)) was 2.18 µM, the LC50 (HL-60(TB)) was greater than 100 µM and the TGI (HL-60(TB)) was 6.4 µM. It also gave a growth at 10 µM (SK-MEL-5) of -66%, a growth at 0.01 µM (PC-3 [13]) of 95% and a growth at 1 µM (HCT-15 [14]) of 65%. It also gave a GI50 (T47D [15]) of 1.6 µM, an LC50 (T47D [15]) of 24.9 µM and a TGI (T47D [15]) of 5.15 µM. It also gave a growth at 100 µM (HCT-116) of -100%, a GI50 (U-251) of 1.11 µM and an LC50 (U-251) of 4.97 µM. For the same compound, the TGI (U-251) was 2.34 µM.
